Results taken from patent EP2717057A1, “Morphine-6-glucuronide derivatives, immunogens and immunoassay” (Cisbio Bioassays, priority 2012, dated 2014).

Biological target: rabbit anti-M6G polyclonal antibody
Experiment: Cross-reactivity of the competitive M6G-ELISA (M6G-HRP tracer, biotinylated antibody)
Format: binding
Conditions: for Kd: approximate, calculated from Figure 1, competing compound diluted in NBCS at 1, 10, 100 or 1000 nM, one site competition model, read-out: affinity constant K; for K relative to M6G (X as high as M6G): ratio of the compound's K to the K of M6G
Description: The rabbit anti-M6G polyclonal antibody was biotinylated for the ELISA assay. After dialysis in buffer carbonate 100 mM pH 9, biotin-NHS dissolved in DMF was added to the antibody. After stirring for 30 min, the free biotin was removed by dialysis in PBS 11 mM pH 7.2. Aliquots of labeled antibody were frozen and stored at -20°C. Then, the biotinylated antibody was diluted at ELISA working concentration determined at 0.25µg.mL^-1 in PBS 11 mM pH 7.2 + 1% BSA, aliquoted and stored at -20°C.
96-well microplates were coated with 200 µL/well of a 10 µg.mL^-1 BSA-biotin solution in PBS and incubated for 24 h at room temperature. Then after aspiration 200 µL/well of 10 µg.mL^-1 of avidin solution in PBS were distributed and incubated for 24 h at room temperature. After washing with NaCl, Tween® 0.005%, 200 µL/well of saturation solution was added (PBS + 2% Sorbitol + 0.5% Glycine + 0.1% BSA + 0.065% NaN3) and incubated for 24 h at 4°C. After an aspiration, the microplates were dried at 20°C in a ventilated room for 12 h, packed with a dessicant and stored at 4°C.
A competitive assay format was used for the M6G-ELISA. 100 µL of biotinylated antibody were added and incubated for 2 h at room temperature under 400 rpm stirring. After incubation, the wells were emptied and 3 wash cycles with H2O + 0.05% Tween® were applied. 50 µL of calibrators, controls and samples were added in duplicate. If necessary, samples were prediluted in dilution buffer (PBS + 0.1% BSA), then 50 µL of M6G-HRP conjugate was distributed in all the wells and incubated for 2h at room temperature, under 400rpm stirring. After a final washing step, 100 µL of HRP substrate (TMB) were added, and incubated for 10 min at room temperature, under 400rpm stirring. The chromogenic reaction was stopped with 100 µL H2SO4 1 N, and the absorbance of each sample was determined at 450 nm and 620 nm (reference wavelength). The results were analyzed using GraphPad Prism Software, model one site competition.
The cross-reactivity of the assay described in example 5 with several compounds that are structurally close to M6G was evaluated. For this purpose, the assay was performed with 50 µL of samples constituted of competing compounds diluted in NBCS at the concentrations of: 1 nM, 10 nM, 100 nM or 1000 nM.

| SMILES | Kd | K relative to M6G (X as high as M6G) |
| --- | --- | --- |
| CN1CC[C@]23c4c5ccc(O[C@@H]6O[C@H](C(=O)O)[C@@H](O)[C@H](O)[C@H]6O)c4O[C@H]2[C@@H](O[C@@H]2O[C@H](C(=O)O)[C@@H](O)[C@H](O)[C@H]2O)C=C[C@H]3[C@H]1C5 [M3,6G, Morphine-3-6-diglucuronide] | 0.0034 µM | – |
| CN1CC[C@]23c4c5ccc(O[C@@H]6O[C@H](C(=O)O)[C@@H](O)[C@H](O)[C@H]6O)c4O[C@H]2[C@@H](O)C=C[C@H]3[C@H]1C5 [M3G, Morphine-3-glucuronide] | 0.67 µM | more than 100 X |
| CN1CC[C@]23c4c5ccc(O)c4O[C@H]2[C@@H](O[C@@H]2O[C@H](C(=O)O)[C@@H](O)[C@H](O)[C@H]2O)C=C[C@H]3[C@H]1C5 [M6G, Morphine-6-glucuronide] | 0.0059 µM | – |
| COc1ccc2c3c1O[C@H]1[C@@H](O)C=C[C@H]4[C@@H](C2)N(C)CC[C@@]341 [codeine, Codeine] | 0.22 µM | 35 X |
| COc1ccc2c3c1O[C@H]1[C@@H](O)C=C[C@H]4[C@@H](C2)NCC[C@@]341 [norcodeine, Norcodeine] | > 1 µM | – |
| Oc1ccc2c3c1O[C@H]1[C@@H](O)C=C[C@H]4[C@@H](C2)NCC[C@@]341 [normorphine, Normorphine] | > 1 µM | – |
